Legend:
Assay in all cases: Histone peptide microarray
Type in all cases: binding, human
Settings in all cases: total n = 4
[1] = test system: BPTF (PB)
Summary of the method: (§1)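 Histone peptide library (293 synthetic peptides, single/combinatorial PTMs) arrayed and probed with 0.5 μM purified GST-PHD domain; optimized protocol; quadruplicate mean and SD reported.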

[2] = test system: RAG2
Summary of the method: as §1

[3] = test system: KDM5B (3)
Summary of the method: as §1

[4] = test system: ING3
Summary of the method: as §1

[5] = test system: MLL5
Summary of the method: as §1

[6] = test system: AIRE (PP)
Summary of the method: as §1

[7] = test system: DPF2 (PPC2W2)
Summary of the method: as §1

[8] = test system: MORC3 (CW)
Summary of the method: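 Each reader, produced as a GST fusion and purified, was tested at 0.5 μM on synthetic histone peptides (293 in total) carrying single or combinatorial marks. Intensities averaged over four replicates.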

[9] = test system: SP140L
Summary of the method: as §1

[10] = test system: KDM5A (1)
Summary of the method: as §1

[11] = test system: TRIM66 (PB)
Summary of the method: as §1

[12] = test system: ING1
Summary of the method: as §1

[13] = test system: KDM5A (3)
Summary of the method: as §1

[14] = test system: CHD4 (PPCC)
Summary of the method: as §1

[15] = test system: TAF3
Summary of the method: as §1

[16] = test system: PHF13
Summary of the method: as §1

[17] = test system: PHF8
Summary of the method: as §1

[18] = test system: PHF21A
Summary of the method: as §1

[19] = test system: PHRF1 (RP)
Summary of the method: as §1

[20] = test system: PHF23
Summary of the method: as §1

[21] = test system: KDM5B (1)
Summary of the method: as §1

[22] = test system: CHD5 (PCC)
Summary of the method: as §1

[23] = test system: DIDO1
Summary of the method: as §1

[24] = test system: ING2
Summary of the method: as §1

[25] = test system: KDM4C (TTP)
Summary of the method: as §1

[26] = test system: PHF2
Summary of the method: as §1

[27] = test system: ING5
Summary of the method: as §1

[28] = test system: CHD5 (PPCC)
Summary of the method: as §1

[29] = test system: BAZ2B
Summary of the method: as §1

[30] = test system: KDM7A
Summary of the method: as §1

[31] = test system: ING4
Summary of the method: as §1

[32] = sheet "Array Heatmap", GST-tagged reader, histone peptide array

## H3K18ac (1-25): H3 1-25
[1]; [32]
  Array Heatmap signal, BPTF (PB): 0.4168
[2]; [32]
  Array Heatmap signal, RAG2: 0.3351
[3]; [32]
  Array Heatmap signal, KDM5B (3): 0.5812
[4]; [32]
  Array Heatmap signal, ING3: 0.5765
[5]; [32]
  Array Heatmap signal, MLL5: 0.6155
[6]; [32]
  Array Heatmap signal, AIRE (PP): 0.502
[7]; [32]
  Array Heatmap signal, DPF2 (PPC2W2): 0.8287
[8]; [32]
  Array Heatmap signal, MORC3 (CW): 0.6771
[9]; [32]
  Array Heatmap signal, SP140L: 0.3993
[10]; [32]
  Array Heatmap signal, KDM5A (1): 0.5632
[11]; [32]
  Array Heatmap signal, TRIM66 (PB): 0.788
[12]; [32]
  Array Heatmap signal, ING1: 0.6071
[13]; [32]
  Array Heatmap signal, KDM5A (3): 0.7204
[14]; [32]
  Array Heatmap signal, CHD4 (PPCC): 0.699
[15]; [32]
  Array Heatmap signal, TAF3: 0.3651
[16]; [32]
  Array Heatmap signal, PHF13: 0.7117
[17]; [32]
  Array Heatmap signal, PHF8: 0.4195
[18]; [32]
  Array Heatmap signal, PHF21A: 0.5491
[19]; [32]
  Array Heatmap signal, PHRF1 (RP): 0.8108
[20]; [32]
  Array Heatmap signal, PHF23: 0.5923
[21]; [32]
  Array Heatmap signal, KDM5B (1): 0.7576
[22]; [32]
  Array Heatmap signal, CHD5 (PCC): 0.844
[23]; [32]
  Array Heatmap signal, DIDO1: 0.8263
[24]; [32]
  Array Heatmap signal, ING2: 0.65
[25]; [32]
  Array Heatmap signal, KDM4C (TTP): 0.575
[26]; [32]
  Array Heatmap signal, PHF2: 0.6849
[27]; [32]
  Array Heatmap signal, ING5: 0.4305
[28]; [32]
  Array Heatmap signal, CHD5 (PPCC): 0.6616
[29]; [32]
  Array Heatmap signal, BAZ2B: 0.5309
[30]; [32]
  Array Heatmap signal, KDM7A: 0.4088
[31]; [32]
  Array Heatmap signal, ING4: 0.5434

## H3K18ac (1-32): H3 1-32
[1]; BPTF (PB), sheet "Array Heatmap", each array performed twice
  Array Heatmap value (peptide array signal): 0.3434
[2]; RAG2, sheet "Array Heatmap", each array performed twice
  Array Heatmap value (peptide array signal): 0.2621
[3]; KDM5B (3), sheet "Array Heatmap", each array performed twice
  Array Heatmap value (peptide array signal): 0.448
[4]; ING3, sheet "Array Heatmap", each array performed twice
  Array Heatmap value (peptide array signal): 0.4519
[5]; MLL5, sheet "Array Heatmap", each array performed twice
  Array Heatmap value (peptide array signal): 0.5655
[6]; AIRE (PP), sheet "Array Heatmap", each array performed twice
  Array Heatmap value (peptide array signal): 0.5458
[7]; DPF2 (PPC2W2), sheet "Array Heatmap", each array performed twice
  Array Heatmap value (peptide array signal): 0.7444
[8]; MORC3 (CW), sheet "Array Heatmap", each array performed twice
  Array Heatmap value (peptide array signal): 0.4635
[9]; SP140L, sheet "Array Heatmap", each array performed twice
  Array Heatmap value (peptide array signal): 0.3664
[10]; KDM5A (1), sheet "Array Heatmap", each array performed twice
  Array Heatmap value (peptide array signal): 0.4813
[11]; TRIM66 (PB), sheet "Array Heatmap", each array performed twice
  Array Heatmap value (peptide array signal): 0.5982
[12]; ING1, sheet "Array Heatmap", each array performed twice
  Array Heatmap value (peptide array signal): 0.5268
[13]; KDM5A (3), sheet "Array Heatmap", each array performed twice
  Array Heatmap value (peptide array signal): 0.5027
[14]; CHD4 (PPCC), sheet "Array Heatmap", each array performed twice
  Array Heatmap value (peptide array signal): 0.5307
[15]; TAF3, sheet "Array Heatmap", each array performed twice
  Array Heatmap value (peptide array signal): 0.2816
[16]; PHF13, sheet "Array Heatmap", each array performed twice
  Array Heatmap value (peptide array signal): 0.586
[17]; PHF8, sheet "Array Heatmap", each array performed twice
  Array Heatmap value (peptide array signal): 0.3597
[18]; PHF21A, sheet "Array Heatmap", each array performed twice
  Array Heatmap value (peptide array signal): 0.434
[19]; PHRF1 (RP), sheet "Array Heatmap", each array performed twice
  Array Heatmap value (peptide array signal): 0.6228
[20]; PHF23, sheet "Array Heatmap", each array performed twice
  Array Heatmap value (peptide array signal): 0.5317
[21]; KDM5B (1), sheet "Array Heatmap", each array performed twice
  Array Heatmap value (peptide array signal): 0.7307
[22]; CHD5 (PCC), sheet "Array Heatmap", each array performed twice
  Array Heatmap value (peptide array signal): 0.7075
[23]; DIDO1, sheet "Array Heatmap", each array performed twice
  Array Heatmap value (peptide array signal): 0.6775
[24]; ING2, sheet "Array Heatmap", each array performed twice
  Array Heatmap value (peptide array signal): 0.6127
[25]; KDM4C (TTP), sheet "Array Heatmap", each array performed twice
  Array Heatmap value (peptide array signal): 0.505
[26]; PHF2, sheet "Array Heatmap", each array performed twice
  Array Heatmap value (peptide array signal): 0.4084
[27]; ING5, sheet "Array Heatmap", each array performed twice
  Array Heatmap value (peptide array signal): 0.3576
[28]; CHD5 (PPCC), sheet "Array Heatmap", each array performed twice
  Array Heatmap value (peptide array signal): 0.5424
[29]; BAZ2B, sheet "Array Heatmap", each array performed twice
  Array Heatmap value (peptide array signal): 0.4901
[30]; KDM7A, sheet "Array Heatmap", each array performed twice
  Array Heatmap value (peptide array signal): 0.3927
[31]; ING4, sheet "Array Heatmap", each array performed twice
  Array Heatmap value (peptide array signal): 0.4589

## H3K18ac: H3 1-20 [Peptide H3K18ac]
[1]; GST-tagged BPTF (PB = PHD + Bromodomain), sheet Array Heatmap, each array performed twice
  Array Heatmap signal (histone peptide microarray): 0.3398
[2]; GST-tagged RAG2, sheet Array Heatmap, each array performed twice
  Array Heatmap signal (histone peptide microarray): 0.2722
[3]; GST-tagged KDM5B (3), sheet Array Heatmap, each array performed twice
  Array Heatmap signal (histone peptide microarray): 0.5801
[4]; GST-tagged ING3, sheet Array Heatmap, each array performed twice
  Array Heatmap signal (histone peptide microarray): 0.4594
[5]; GST-tagged MLL5, sheet Array Heatmap, each array performed twice
  Array Heatmap signal (histone peptide microarray): 0.5221
[6]; GST-tagged AIRE (PP), sheet Array Heatmap, each array performed twice
  Array Heatmap signal (histone peptide microarray): 0.6319
[7]; GST-tagged DPF2 (PPC2W2 = Dual PHD + C2W2-type Zn-finger), sheet Array Heatmap, each array performed twice
  Array Heatmap signal (histone peptide microarray): 0.8135
[8]; GST-tagged MORC3 (CW = CW-type Zn-finger), sheet Array Heatmap, each array performed twice
  Array Heatmap signal (histone peptide microarray): 0.6663
[9]; GST-tagged SP140L, sheet Array Heatmap, each array performed twice
  Array Heatmap signal (histone peptide microarray): 0.3771
[10]; GST-tagged KDM5A (1), sheet Array Heatmap, each array performed twice
  Array Heatmap signal (histone peptide microarray): 0.495
[11]; GST-tagged TRIM66 (PB = PHD + Bromodomain), sheet Array Heatmap, each array performed twice
  Array Heatmap signal (histone peptide microarray): 0.7719
[12]; GST-tagged ING1, sheet Array Heatmap, each array performed twice
  Array Heatmap signal (histone peptide microarray): 0.5131
[13]; GST-tagged KDM5A (3), sheet Array Heatmap, each array performed twice
  Array Heatmap signal (histone peptide microarray): 0.7024
[14]; GST-tagged CHD4 (PPCC = Dual PHD + Dual Chromodomain), sheet Array Heatmap, each array performed twice
  Array Heatmap signal (histone peptide microarray): 0.5741
[15]; GST-tagged TAF3, sheet Array Heatmap, each array performed twice
  Array Heatmap signal (histone peptide microarray): 0.3122
[16]; GST-tagged PHF13, sheet Array Heatmap, each array performed twice
  Array Heatmap signal (histone peptide microarray): 0.6049
[17]; GST-tagged PHF8, sheet Array Heatmap, each array performed twice
  Array Heatmap signal (histone peptide microarray): 0.3469
[18]; GST-tagged PHF21A, sheet Array Heatmap, each array performed twice
  Array Heatmap signal (histone peptide microarray): 0.4738
[19]; GST-tagged PHRF1 (RP), sheet Array Heatmap, each array performed twice
  Array Heatmap signal (histone peptide microarray): 0.9005
[20]; GST-tagged PHF23, sheet Array Heatmap, each array performed twice
  Array Heatmap signal (histone peptide microarray): 0.5309
[21]; GST-tagged KDM5B (1), sheet Array Heatmap, each array performed twice
  Array Heatmap signal (histone peptide microarray): 0.7147
[22]; GST-tagged CHD5 (PCC = PHD + Dual Chromodomain), sheet Array Heatmap, each array performed twice
  Array Heatmap signal (histone peptide microarray): 0.8176
[23]; GST-tagged DIDO1, sheet Array Heatmap, each array performed twice
  Array Heatmap signal (histone peptide microarray): 0.6541
[24]; GST-tagged ING2, sheet Array Heatmap, each array performed twice
  Array Heatmap signal (histone peptide microarray): 0.5886
[25]; GST-tagged KDM4C (TTP = Tandem Tudor domain + PHD), sheet Array Heatmap, each array performed twice
  Array Heatmap signal (histone peptide microarray): 0.5068
[26]; GST-tagged PHF2, sheet Array Heatmap, each array performed twice
  Array Heatmap signal (histone peptide microarray): 0.5028
[27]; GST-tagged ING5, sheet Array Heatmap, each array performed twice
  Array Heatmap signal (histone peptide microarray): 0.3604
[28]; GST-tagged CHD5 (PPCC = Dual PHD + Dual Chromodomain), sheet Array Heatmap, each array performed twice
  Array Heatmap signal (histone peptide microarray): 0.5749
[29]; GST-tagged BAZ2B, sheet Array Heatmap, each array performed twice
  Array Heatmap signal (histone peptide microarray): 0.4617
[30]; GST-tagged KDM7A, sheet Array Heatmap, each array performed twice
  Array Heatmap signal (histone peptide microarray): 0.36
[31]; GST-tagged ING4, sheet Array Heatmap, each array performed twice
  Array Heatmap signal (histone peptide microarray): 0.4378

Source: paper PMC6979384, “Characterization of the plant homeodomain (PHD) reader family for their histone tail interactions” (Epigenetics & Chromatin, 2020)
